PubChem BioAssay AID2060603 (Molecular Pharmacology Branch, DTP, NCI, 2025)
“And” between values parts separate entries of the source, which are not always exact repeats. Equal entries are not always repeated. Values belong to the compound of their own block, whether it stands above or below them.

System: 422866-222-R5-J1-PDC spheroid viability
Experiment: Anticancer human tumor 422866-222-R5-J1-PDC patient-derived pancreatic adenocarcinoma cell line growth inhibition [CLK]
Details: spheroids with HUVEC and MSC; for viability, T/C: stronger effect = lower value
Method in brief: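 Patient-derived tumor cells grown as complex spheroids with HUVEC endothelial cells and mesenchymal stem cells, treated with drug combinations. Concentrations descend in half-log steps from near clinical Cmax, or from 10 microM if Cmax unknown.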
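Also: spheroids exposed to agents for seven days before readout.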

IC50 (curve of first compound, second compound 0.0316 µM): > 100 nM | IC50 (curve of first compound, second compound 0.1 µM): > 100 nM | IC50 (curve of first compound, second compound 0.316 µM): > 100 nM | IC50 (curve of first compound, second compound 1 µM): > 100 nM | IC50 (curve of first compound, second compound 3.16 µM): > 100 nM | IC50 (curve of first compound, second compound 10 µM): > 100 nM
SMILES: Cn1ncnc1[C@H]1c2n[nH]c(=O)c3cc(F)cc(c23)N[C@@H]1c1ccc(F)cc1 + CNC(=O)c1ccc(Nc2nc(OC3CCCC3)c3c(-c4ccc5nc(C)oc5c4)c[nH]c3n2)c(OC)c1
viability, T/C (second compound 0.0316 µM, first compound 0.000316 µM): 105% | viability, T/C (second compound 0.0316 µM, first compound 0.001 µM): 112% | viability, T/C (second compound 0.0316 µM, first compound 0.00316 µM): 102% | viability, T/C (second compound 0.0316 µM, first compound 0.01 µM): 91.2% | viability, T/C (second compound 0.0316 µM, first compound 0.0316 µM): 89.6% | viability, T/C (second compound 0.0316 µM, first compound 0.1 µM): 78.6% | viability, T/C (second compound 0.1 µM, first compound 0.000316 µM): 98.8% | viability, T/C (second compound 0.1 µM, first compound 0.001 µM): 91% | viability, T/C (second compound 0.1 µM, first compound 0.00316 µM): 84.2% | viability, T/C (second compound 0.1 µM, first compound 0.01 µM): 89.8% | viability, T/C (second compound 0.1 µM, first compound 0.0316 µM): 74.8% | viability, T/C (second compound 0.1 µM, first compound 0.1 µM): 83.8% | viability, T/C (second compound 0.316 µM, first compound 0.000316 µM): 84.8% | viability, T/C (second compound 0.316 µM, first compound 0.001 µM): 75.2% | viability, T/C (second compound 0.316 µM, first compound 0.00316 µM): 66.3% | viability, T/C (second compound 0.316 µM, first compound 0.01 µM): 68% | viability, T/C (second compound 0.316 µM, first compound 0.0316 µM): 80.9% | viability, T/C (second compound 0.316 µM, first compound 0.1 µM): 64.7% | viability, T/C (second compound 1 µM, first compound 0.000316 µM): 75.8% | viability, T/C (second compound 1 µM, first compound 0.001 µM): 65% | viability, T/C (second compound 1 µM, first compound 0.00316 µM): 63.7% | viability, T/C (second compound 1 µM, first compound 0.01 µM): 52.4% | viability, T/C (second compound 1 µM, first compound 0.0316 µM): 52.4% | viability, T/C (second compound 1 µM, first compound 0.1 µM): 54.6% | viability, T/C (second compound 3.16 µM, first compound 0.000316 µM): 61.9% | viability, T/C (second compound 3.16 µM, first compound 0.001 µM): 73.8% | viability, T/C (second compound 3.16 µM, first compound 0.00316 µM): 60.1% | viability, T/C (second compound 3.16 µM, first compound 0.01 µM): 54.3% | viability, T/C (second compound 3.16 µM, first compound 0.0316 µM): 53.8% | viability, T/C (second compound 3.16 µM, first compound 0.1 µM): 52% | viability, T/C (second compound 10 µM, first compound 0.000316 µM): 61.8% | viability, T/C (second compound 10 µM, first compound 0.001 µM): 59.6% | viability, T/C (second compound 10 µM, first compound 0.00316 µM): 55.9% | viability, T/C (second compound 10 µM, first compound 0.01 µM): 48.6% | viability, T/C (second compound 10 µM, first compound 0.0316 µM): 65% | viability, T/C (second compound 10 µM, first compound 0.1 µM): 71.9%

IC50 (curve of compound): > 100 nM
SMILES: Cn1ncnc1[C@H]1c2n[nH]c(=O)c3cc(F)cc(c23)N[C@@H]1c1ccc(F)cc1
viability, T/C (compound 0.000316 µM): 86.9% and 103% | viability, T/C (compound 0.001 µM): 110% and 95.5% | viability, T/C (compound 0.00316 µM): 97% and 99.8% | viability, T/C (compound 0.01 µM): 101% and 87.8% | viability, T/C (compound 0.0316 µM): 91.4% | viability, T/C (compound 0.1 µM): 85% and 87.1%

IC50 (curve of compound): 2500 nM and 1710 nM
SMILES: COc1ccc([C@@H](O)c2cc(-c3ncnc4cc(N5CCOCC5)ccc34)c(F)cc2Cl)nn1
viability, T/C (compound 0.0316 µM): 88.1% and 94.1% | viability, T/C (compound 0.1 µM): 105% and 99% | viability, T/C (compound 0.316 µM): 80.7% and 76.8% | viability, T/C (compound 1 µM): 66.4% and 61.3% | viability, T/C (compound 3.16 µM): 47.2% and 38.6% | viability, T/C (compound 10 µM): 35.5% and 29.1%
